According to US4551547A, “Biocidal 2-aryl-1, 3-cyclopentanedione enol ester compounds” (Union Carbide Corporation, priority 1983, dated 1985):
≈ marks a conversion by molar mass, not a printed value.

How the values were obtained:
[1] = tested on: Soybean; test: Post-emergent herbicidal test, soybean; type: in vivo; parameters: key: 1: no perceptible injury; 2: intermediate degrees of injury; 3: intermediate degrees of injury; 4: intermediate degrees of injury; 5: the plant was dead; conditions: 2500 parts per million, after ten days; for Post-emergent Herbicidal, Soybean: Table II; for Post Emergent Herbicidal, Soybean: Table III
Experimental: (§1) Suspensions of the test compounds were prepared by dissolving one gram of compound in 50 milliliters of acetone in which had been dissolved 0.1 gram (10 percent of the weight of compound) of an alkylphenoxyethanol sufactant, as an emulsifying or dispersing agent. The resulting solution was mixed into 160 milliliters of water to give roughly 200 milliliters of a suspension containing the compound in finely divided form. The thus prepared stock suspension contained 0.5 percent by weight of compound. The test concentrations employed in the tests described below were obtained by diluting the stock suspension with water. The test procedures were as follows:
(§2) Experiments were also conducted to determine the phytotoxicity of representative compositions with respect to healthy fresh plants. Solutions of the compounds were prepared as described above to provide a concentration of 2500 parts per million of the test compound. The test plants were sprayed in accordance with the procedure described above for the Mite Foliage Spray Test so as to deliver approximately 100 milliliters of test solutions to the leaves of each plant tested. The sprayed plants and controls were set aside for approximately one hour to allow the solutions to dry and were then placed in the greenhouse. After ten days the plants were visually inspected to determine the extent of foliage injury. A rating of 1 indicates no perceptible injury; 5 indicates the plant was dead and ratings of 2, 3 and 4 indicate intermediate degrees of injury based upon the number and extent to which leaves were injured.

[2] = tested on: Mustard; test: Preliminary herbicide seed germination test (pre-emergent), mustard; type: in vivo, Brassica pincea var. foliosa (Florida broadleaf); parameters: key: 5: no seedling emerged; 4: few seedlings emerged and/or very severe stunting; 3: moderate reduction in stand and/or moderate stunting.; 2: very slight reduction in stand and/or slight stunting; 1: no injury, seedlings appear no different with respect to stand or growth than untreated controls; conditions: ten to twelve days after application
Experimental: as §1
(§3) The following seeds were used in this test:
Mustard--Brassica pincea var. foliosa (Florida broadleaf)
(§4) Two […] mixtures were prepared as follows:
(§5) Each of the above mixtures was rolled separately in 5 gallon containers for approximately one-half hour on ball mill to insure uniform mixing of seeds and soil. For each compound four 3-inch pots were filled with soil to within 11/2 inches of top of pots. To two of these pots were added 70 cc. of Mixture I. To the remaining 2 pots were added 70 cc. of Mixture II. The seed-soil mixture was tamped firmly, and the pots were removed to the greenhouse and watered lightly. About 2 hours after planting, 25 milliliters of the test formulation were added to one pot containing Mixture I and one pot containing Mixture II. An equal volume of a water solution containing acetone and an emulsifier in the same concentration as the herbicidal mixture but without the candidate herbicide was also added to each of the soil-seed mixtures. These pots are used as check or control units. The test compounds were formulated by diluting the stock suspension with water to obtain the desired concentration of the compound in parts per million of the final formulation. Each compound was tested at the same concentration. […] Ratings were made according to the following designations: […]

[3] = tested on: Tomato; test: Post-emergent herbicidal test, tomato; type: in vivo; parameters: key: 1: no perceptible injury; 2: intermediate degrees of injury; 3: intermediate degrees of injury; 4: intermediate degrees of injury; 5: the plant was dead; conditions: 2500 parts per million, after ten days; for Post-emergent Herbicidal, Tomato: Table II; for Post Emergent Herbicidal, Tomato: Table III
Experimental: as §1, §2

[4] = tested on: egg of the two-spotted mite; test: Mite Ovicide Test (eggs); type: in vivo, Tetranychus urticae (Koch); parameters: key to Miticidal, Egg: A: Excellent Control; B: Partial Control; No Control; conditions: for Miticidal, Egg: Table II, unhatched eggs after four days; for LC50: Tetranychus urticae, Table III, ppm required for a 50 percent kill of eggs, read-out: Miticidal LD50, Egg
Experimental: Suspensions of the test compounds were prepared by dissolving one gram of compound in 50 milliliters of acetone in which had been dissolved 0.1 gram (10 percent of the weight of compound) of an alkylphenoxyethanol sufactant, as an emulsifying or dispersing agent. The resulting solution was mixed into 160 milliliters of water to give roughly 200 milliliters of a suspension containing the compound in finely divided form. The thus prepared stock suspension contained 0.5 percent by weight of compound. The test concentrations employed in the tests described below were obtained by diluting the stock suspension with water. The test procedures were as follows: The test organism was the egg of the two-spotted mite (Tetranychus urticae (Koch)), as obtained from adults reared on […] bean plants under controlled conditions of 80±5° F. and 50±5 percent relative humidity. Heavily infested leaves from a stock culture were placed on the primary leaves of two bean plants six to eight inches in height growing in a two-and-a-half inch clay pot. Females were allowed to oviposit for a period of 48 hours and the leaves of the infested plants were dipped in a solution containing 800 parts of tetraethyl pyrophosphate per million parts of water in order to destroy the reproductory forms and thus prevent further egg laying. […] The plants were allowed to dry thoroughly. The test compounds were formulated by diluting the stock suspension with water to give a suspension containing varying amounts of test compound per million parts of final formulation. The potted plants (one pot per compound) were placed on a revolving turntable and sprayed with 100-110 milliliters of test compound formulation by use of a DeVilbis spray gun set at 40 spig. air pressure. This application which lasted 30 seconds, was sufficient to wet the plants to run-off. As a control, 100-110 milliliters of a water solution containing acetone and emulsifier in the same concentrations as the test compound formulation, but containing no test compound, were also sprayed on plants infested with eggs. The sprayed plants were held at 80±5° F. and 50±5 percent relative humidity for four days, after which a microscopic examination was made of unhatched (dead) and hatched (living) eggs. In these tests the pesticidal activity of the compounds against mites and mite eggs was rated as follows: Tests were conducted in accordance with the procedures given at pages 17 to 21 supra. The results are expressed in the same manner as used in Table II, except with respect to miticidal activity. For mite adult and mite egg comparison purposes, results are given in parts per million (ppm) required for a 50 percent kill of mites or eggs, respectively.

[5] = tested on: Red root pigweed (Amaranthus); test: Preliminary herbicide seed germination test (pre-emergent), red root pigweed; type: in vivo, Amaranthus retroflexus; parameters: key: 5: no seedling emerged; 4: few seedlings emerged and/or very severe stunting; 3: moderate reduction in stand and/or moderate stunting.; 2: very slight reduction in stand and/or slight stunting; 1: no injury, seedlings appear no different with respect to stand or growth than untreated controls; conditions: ten to twelve days after application
Experimental: as §1, §3
Red root pigweed--Amaranthus retroflexus
as §4, §5

[6] = tested on: Bean; test: Post-emergent herbicidal test, bean; type: in vivo; parameters: key: 1: no perceptible injury; 2: intermediate degrees of injury; 3: intermediate degrees of injury; 4: intermediate degrees of injury; 5: the plant was dead; conditions: 2500 parts per million, after ten days; for Post-emergent Herbicidal, Bean: Table II; for Post Emergent Herbicidal, Bean: Table III
Experimental: as §1, §2

[7] = tested on: Corn; test: Post-emergent herbicidal test, corn; type: in vivo; parameters: key: 1: no perceptible injury; 2: intermediate degrees of injury; 3: intermediate degrees of injury; 4: intermediate degrees of injury; 5: the plant was dead; conditions: 2500 parts per million, after ten days; for Post-emergent Herbicidal, Corn: Table II; for Post Emergent Herbicidal, Corn: Table III
Experimental: as §1, §2

[8] = tested on: Crabgrass; test: Preliminary herbicide seed germination test (pre-emergent), crabgrass; type: in vivo, Digitaria sanguinalis; parameters: key: 5: no seedling emerged; 4: few seedlings emerged and/or very severe stunting; 3: moderate reduction in stand and/or moderate stunting.; 2: very slight reduction in stand and/or slight stunting; 1: no injury, seedlings appear no different with respect to stand or growth than untreated controls; conditions: ten to twelve days after application
Experimental: as §1, §3
Crabgrass--Digitaria sanguinalis
as §4, §5

| SMILES | Post-emergent Herbicidal, Soybean [1] | Pre-emergent Herbicidal, Mustard ([2]; Table II) | Post-emergent Herbicidal, Tomato [3] | Miticidal, Egg [4] | Pre-emergent Herbicidal, Amaranthus ([5]; Table II) | Post-emergent Herbicidal, Bean [6] | Post-emergent Herbicidal, Corn [7] | Pre-emergent Herbicidal, Crabgrass ([8]; Table II) | Post Emergent Herbicidal, Soybean [1] | Pre-emergent Herbicidal, Mustard ([2]; Table III) | Post Emergent Herbicidal, Tomato [3] | LC50 [4] [mg/L] | Pre-emergent Herbicidal, Amaranthus ([5]; Table III) | Post Emergent Herbicidal, Bean [6] | Post Emergent Herbicidal, Corn [7] | Pre-emergent Herbicidal, Crabgrass ([8]; Table III) |
| --- | --- | --- | --- | --- | --- | --- | --- | --- | --- | --- | --- | --- | --- | --- | --- | --- |
| CCCCC(CC)C(=O)OC1=C(c2ccccc2C)C(=O)C2CCCCC12 (centres unmarked) [Compound 21, 3-(2-Ethylhexanoyloxy)-2-(2'-methylphenyl)-4,5,6,7,8,9-hexahydro-2-indenone] | 2 | 1 | 1 | A | 2 | 1 | 5 | 2 | – | – | – | – | – | – | – | – |
| Cc1ccccc1C1=C(OC(=O)C(C)C)C2CCCCC2C1=O (centres unmarked) [Compound 20] | 3 | 3 | 1 | A | 3 | 3 | 5 | 3 | – | – | – | – | – | – | – | – |
| CCCCC(CC)C(=O)OC1=C(c2ccccc2C)C(=O)CC1 (centres unmarked) [drawing 21] | – | – | – | – | – | – | – | – | 2 | 1 | 2 | 125 (≈ 398 µM) | 3 | 2 | 2 | 3 |
| CCCCCCCCCC(=O)OC1=C(c2cc(C)ccc2C)C(=O)C2CCCCC12 (centres unmarked) [drawing 19] | – | – | – | – | – | – | – | – | 1 | 1 | 1 | 8 (≈ 19.5 µM) | 1 | 1 | 2 | 1 |
| CCCCC(CC)C(=O)OC1=C(c2ccccc2C)C(=O)CC1 (centres unmarked) [Compound 7] | 2 | 1 | 2 | A | 3 | 2 | 2 | 3 | – | – | – | – | – | – | – | – |
| CCCCC(CC)C(=O)OC1=C(c2ccc(C)cc2C)C(=O)CC1 (centres unmarked) [Compound 9, 3-(2-ethylhexanoyloxy)-2-(2', 4'-dimethylphenyl)-2-cyclopentenone] | 1 | 2 | 1 | A | 2 | 2 | 3 | 4 | – | – | – | – | – | – | – | – |
| CC(=O)OC1=C(c2ccc(C)cc2C)C(=O)C2CCCCC12 (centres unmarked) [Compound 25] | 2 | 3 | 2 | A | 3 | 1 | 3 | 5 | – | – | – | – | – | – | – | – |
| Cc1ccc(C2=C(OC(=O)c3ccccc3)C3CCCCC3C2=O)c(C)c1 (centres unmarked) [Compound 27, 3-benzoyloxy-2-(2',4'-dimethylphenyl)-4,5,6,7,8,9-hexahydro-2-indenone] | 2 | 5 | 2 | A | 4 | 1 | 4 | 5 | – | – | – | – | – | – | – | – |
| CCCCC(CC)C(=O)OC1=C(c2ccccc2C)C(=O)c2ccccc21 (centres unmarked) [reference compound] | – | – | – | – | – | – | – | – | 0 | 1 | 1 | 60 (≈ 166 µM) | 1 | 1 | 1 | 1 |
| CCCCCCCCCCCCCCCC(=O)OC1=C(c2ccccc2C)C(=O)C2CCCCC12 (centres unmarked) [Compound 24] | 2 | 3 | 1 | A | 2 | 1 | 2 | 3 | – | – | – | – | – | – | – | – |
| CCCCCCCCCCCCCCCC(=O)OC1=C(c2cc(C)ccc2C)C(=O)C(C)C1 (centres unmarked) [Compound 18] | 2 | 1 | 2 | A | 1 | 2 | 3 | 1 | – | – | – | – | – | – | – | – |
| Cc1ccccc1C1=C(OC(=O)C(C)(C)C)C2CCCCC2C1=O (centres unmarked) [Compound 22] | 3 | 3 | 1 | A | 2 | 2 | 5 | 3 | – | – | – | – | – | – | – | – |
| CCCCC(CC)C(=O)OC1=C(c2cc(C)ccc2C)C(=O)C2CCCCC12 (centres unmarked) [Compound 30, 3-(2-ethylhexanoyloxy)-2-(2',5'-dimethylphenyl)-4,5,6,7,8,9-hexahydro-2-indenone] | 1 | 1 | 1 | A | 1 | 1 | 2 | 1 | – | – | – | – | – | – | – | – |
